# Entries after “also recorded” stand apart in the source; their conditions may differ.
# Tests used:
# Type in all cases: cell-based, human
# JEG-3 cells [1] = test: Proliferation, change in confluence 0-24 h (IncuCyte Zoom, HTTS); details: for minimal effective concentration: read-out: Prolif ↓, lowest concentration at which the mean response value exceeded the mean control value ± 2*SD (rough binning); for cellular proliferation relative to vehicle control (rough binning): after 24 h, in at least one concentration; for Prolif ↓, lowest concentration at which the mean response value exceeded the mean control value ± 2*SD (rough binning): decrease
# Text: (§1) JEG-3 human choriocarcinoma trophoblastic cells (American Type Culture Collection, VA, United States) were maintained in sterile-filtered Minimum Essential Media (MEM) supplemented with L-glutamine and phenol red (Thermo Fisher Scientific, MA, United States), 10% (v/v) heat-inactivated BenchMark Fetal Bovine Serum (Gemini Bio, CA, United States), 1% (v/v) sodium pyruvate (Thermo Fisher Scientific, MA, United States), and 1% (v/v) penicillin streptomycin (Sigma Aldrich, MO, United States). Cells were maintained in an incubator at 37°C with 5% CO2. JEG-3 cells were cultured in 10 cm tissue culture plates and cell passage numbers were recorded.
# (§2) A total of 42 perfluoroalkyl substances (PFAS) were evaluated (Supplementary Table S1 contains source and purity). PFAS stock solutions were maintained in 100% methanol as previous work has shown certain PFAS degrade when stored in dimethyl sulfoxide (DMSO; [Gaballah et al., 2020]). […] The vehicle control group consisted of 97.5% media + 2.5% methanol to match the concentration of methanol in the media at the highest PFAS concentration tested (500 µM). Menadione (50–500 µM) was used as a positive control for cytotoxicity assessment. PFAS were de-identified and assigned random numbers to eliminate bias. Chemical exposure plate maps were designed so that all experimental conditions were tested in at least technical duplicates per plate. The outer edges of each plate received media alone and were excluded from all analyses to avoid edge effects. Each plate map included 14 technical replicates of the vehicle control group and 14 technical replicates of media only. Biological replicates were defined as separate 384 well plates tested on separate days using different cell passages. The experimental workflow is depicted in Supplementary Figure S1.
# (§3) JEG-3 cells were counted using a Z2 Coulter Particle Counter (Beckman Coulter, CA, United States) and seeded at a density of 2,500 cells per well in black-walled, clear bottom 384 well plates (Corning, #3764) and allowed to adhere overnight. Approximately 24 h later, 384 well plates were imaged using an IncuCyte Zoom live cell imager (Essen BioScience Inc., MI, United States) to obtain baseline cellular confluence measurements prior to chemical dosing (0 h). Media was removed from wells and replaced with fresh media containing chemical treatments (exposure media) using a Viaflo liquid handling device (Integra Biosciences, NH, United States). Within 30 min of exposure media application, plates were again imaged for cellular confluence using the IncuCyte Zoom. Plates were incubated with exposure media for 24 h and then imaged again using the IncuCyte Zoom (24 h).
# Plate well bottom images were evaluated using automated cell masking. The automated cell masking program was developed using IncuCyte Zoom base software. Cell masking parameters were defined using a training set of JEG-3 cell images obtained prior to conducting the experiments and following IncuCyte Zoom software recommendations. Briefly, the training images were obtained from cell culture plates with varying levels of JEG-3 cellular confluence (ranging from ∼15% confluent to ∼95% confluent). Parameters for the automated cell masking were first manually set by an experimenter for 3-6 images of low (∼15–30%), medium (∼30–70%), and high confluence (∼70% or greater). The training images were then evaluated by the automated masking program and manually checked to ensure the parameters were sufficiently strict to ignore background (e.g., blank space on the plate well bottom) but adequately sensitive to detect cell borders. The masking program was then implemented on the experimental plates to obtain a baseline cellular confluence measurement at 0 h and a second confluence measurement at 24 h. […]
# JEG-3 cells [2] = test: Mitochondrial membrane potential, JC-10 assay (HTTS); details: for minimal effective concentration: read-out: MMP ↓, lowest concentration at which the mean response value exceeded the mean control value ± 2*SD (rough binning); for MMP relative to vehicle control (rough binning): after 24 h, in at least one concentration; for MMP ↓, lowest concentration at which the mean response value exceeded the mean control value ± 2*SD (rough binning): 24 h, decrease
# Text: as §1, §2, §3
# The JC-10 assay (Enzo Life Sciences, NY, United States) was used to evaluate mitochondrial membrane potential, the main bioenergetic parameter that regulates respiratory rate, ATP synthesis and reactive oxygen species generation. In cells with polarized mitochondrial membranes, the JC-10 dye localizes to the mitochondrial matrix and forms red fluorescent aggregates (540/590 nm). In cells with depolarized mitochondrial membranes, the JC-10 dye localizes in the cytoplasm and converts to a green fluorescent monomer (490/525 nm). Mitochondrial membrane potential was calculated as the ratio of the green and red fluorescence intensities within a well.
# At the end of the 24 h exposure period, exposure media was removed from the plate. The plate wells were then washed with 1x phosphate buffered saline (1x PBS). After washing, the JC-10 reagent was suspended in fresh 1x PBS and 20 µl was added to each well at a final concentration of 20 μM (Enzo Life Sciences, NY, United States). The plate was incubated for 1 h at 37°C, and the fluorescence intensities at excitation/emission wavelengths of 490/525 nm and 540/590 nm were measured using a CLARIOstar (BMG Labtech, Offenburg, Germany) plate reader, respectively.
# HTTS data were analyzed using a custom data analysis script in R v 1.2.5019 ([R Core Team, 2019]). […]
# JEG-3 cells [3] = test: CellTiter-Glo luminescent cell viability assay (HTTS); details: for Viability ↓, lowest concentration at which the mean response value exceeded the mean control value ± 2*SD (rough binning) / Viability ↑, lowest concentration at which the mean response value exceeded the mean control value ± 2*SD (rough binning): 24 h; for Viability ↓, lowest concentration at which the mean response value exceeded the mean control value ± 2*SD (rough binning): decrease; for cell viability relative to vehicle control (rough binning): after 24 h, in at least one concentration; for Viability ↑, lowest concentration at which the mean response value exceeded the mean control value ± 2*SD (rough binning): increase
# Text: as §1, §2, §3
# In the same plate evaluated for mitochondrial membrane potential, cell viability measures were duplexed using the CellTiter-Glo (CTG) Luminescent Cell Viability Assay (Promega, WI, United States). CTG reagent was added to each well at a volume of 20 µl. The plate was left at room temperature to incubate for 5 min and then 20 µl from each well was transferred to a low-volume, round-bottom, white 384 well plate (Corning, NY, United States). The CTG reagent lyses cellular and mitochondrial membranes and binds to adenosine triphosphate (ATP) released by cells, which produces a luminescence signal. The intensity of the luminescence was considered a proxy measure for the number of live cells in a well. The luminescence intensities were measured using the CLARIOstar plate reader.
# HTTS data were analyzed using a custom data analysis script in R v 1.2.5019 ([R Core Team, 2019]). Briefly, raw data points corresponding to the confluence measurements at 0 and 24 h, the fluorescence intensities corresponding to MMP, and the relative luminescence units (RLU) corresponding to cell viability were imported directly from Microsoft Excel into the R programming environment, RStudio. Separate plates run on separate days using different JEG-3 passages were considered as biologic replicates. […]
# [4] = Homo sapiens, JEG-3, 24 h, read-out: Proliferation EC50 ± SD, JEG-3 cells, 24 h exposure, four-parameter fit, estimates meeting inclusion criteria
# [5] = Homo sapiens, JEG-3, 24 h, read-out: MMP EC50 ± SD, JEG-3 cells, 24 h exposure, four-parameter fit, estimates meeting inclusion criteria
# [6] = read-out: MMP EC50 ± SD, JEG-3 cells, 24 h exposure, four-parameter fit, estimates meeting inclusion criteria
# [7] = Homo sapiens, JEG-3, 24 h, read-out: Viability EC50 ± SD, JEG-3 cells, 24 h exposure, four-parameter fit, estimates meeting inclusion criteria
# [8] = JEG-3 cells, 24 h exposure, four-parameter fit, estimates meeting inclusion criteria, read-out: Proliferation EC50 ± SD
# [9] = JEG-3 cells, 24 h exposure, four-parameter fit, estimates meeting inclusion criteria, read-out: Viability EC50 ± SD
# [10] = JEG-3 cells, raw model output including fits that did not meet inclusion criteria, read-out: MMP EC50 ± SD (raw values)
# [11] = Homo sapiens, JEG-3, 24 h, read-out: MMP EC50 ± SE, JEG-3 cells, 24 h
SMILES,"minimal effective concentration (JEG-3 cells [1]; Homo sapiens, JEG-3, 24 h) [µM]",EC50 (JEG-3 cells [1]; [4]) [µM],cellular proliferation relative to vehicle control (rough binning) (JEG-3 cells [1]),EC50 (JEG-3 cells [2]; [5]) [µM],"minimal effective concentration (JEG-3 cells [2]; Homo sapiens, JEG-3, 24 h) [µM]",MMP relative to vehicle control (rough binning) (JEG-3 cells [2]),"Viability ↓, lowest concentration at which the mean response value exceeded the mean control value ± 2*SD (rough binning) (JEG-3 cells [3]; JEG-3 cells) [µM]",cell viability relative to vehicle control (rough binning) (JEG-3 cells [3]),EC50 (JEG-3 cells [3]; [7]) [µM],"Viability ↑, lowest concentration at which the mean response value exceeded the mean control value ± 2*SD (rough binning) (JEG-3 cells [3]; JEG-3 cells) [µM]",EC50 (JEG-3 cells [1]; [8]) [µM],"MMP ↓, lowest concentration at which the mean response value exceeded the mean control value ± 2*SD (rough binning) (JEG-3 cells [2]; JEG-3 cells) [µM]",EC50 (JEG-3 cells [3]; [9]) [µM],further results
"O=C(O)C(F)(F)OC(F)(F)C(F)(F)OC(F)(F)C(F)(F)C(F)(F)C(F)(F)F [Perfluoro-3,6-dioxadecanoic acid]",300,283 ± 25.7,reduced cellular proliferation,350 ± 16.1,400,reduced MMP,400,reduced cell viability,–,–,–,–,–,–
"O=C(O)C(F)(F)OC(F)(F)C(F)(F)OC(F)(F)F [Perfluoro-3,6-dioxaheptanoic acid]",400,351 ± 11.8,reduced cellular proliferation,368,400,reduced MMP,–,increased cell viability,326 ± 85.7,200,–,–,–,EC50 (JEG-3 cells [2]; [6]): 368 ± 22.6 µM
O=C(O)C(F)(F)C(F)(F)OC(F)(F)F [Perfluoro-3-methoxypropanoic acid],–,204 ± 111,–,93.1 ± 132,–,–,–,–,304 ± 28.2,–,–,–,–,–
O=S(=O)(O)C(F)(F)C(F)(F)C(F)(F)C(F)(F)F [Perfluorobutanesulfonic acid],–,–,–,–,–,reduced MMP,–,increased cell viability,–,50,223 ± 76.7,50,330 ± 35,–
O=C(O)C(F)(F)C(F)(F)C(F)(F)F [Perfluorobutanoic acid],–,–,–,–,–,reduced MMP,–,increased cell viability,–,50,209 ± 360,50,226 ± 116,EC50 (JEG-3 cells [2]; [10]): 52 µM
O=C(O)C(F)(F)C(F)(F)C(F)(F)C(F)(F)C(F)(F)C(F)(F)C(F)(F)C(F)(F)C(F)(F)F [Perfluorodecanoic acid],250,234 ± 22.8,reduced cellular proliferation,236 ± 160,50,reduced MMP,200,reduced cell viability; also recorded: increased cell viability,181 ± 25.6,50,–,–,–,"EC50 (JEG-3 cells [3]; Homo sapiens, JEG-3, 24 h, read-out: viability EC50 ± SE, JEG-3 cells, 24 h): 181 ± 26 µM"
O=S(=O)(O)C(F)(F)C(F)(F)C(F)(F)C(F)(F)C(F)(F)C(F)(F)C(F)(F)F [Perfluoroheptanesulfonic acid],–,–,–,–,–,–,–,–,–,–,296 ± 201,–,–,"Prolif ↓, lowest concentration at which the mean response value exceeded the mean control value ± 2*SD (rough binning) (JEG-3 cells [1]; JEG-3 cells, 24 h): 232.5 µM; Prolif ↑, lowest concentration at which the mean response value exceeded the mean control value ± 2*SD (rough binning) (JEG-3 cells [1]; JEG-3 cells, 24 h, increase): 23.25 µM; EC50 (JEG-3 cells [2]; [10]): 874 ± 1750 µM; EC50 (JEG-3 cells [3]; JEG-3 cells, raw model output including fits that did not meet inclusion criteria, read-out: Viability EC50 ± SD (raw values)): 1980 ± 2480 µM"
O=S(=O)(O)C(F)(F)C(F)(F)C(F)(F)C(F)(F)C(F)(F)C(F)(F)F [Perfluorohexanesulfonic acid],350,252 ± 21.7,reduced cellular proliferation,86.2,–,–,–,increased cell viability,289 ± 29.6,50,–,–,–,EC50 (JEG-3 cells [2]; [11]): 86.2 ± 72.3 µM; EC50 (JEG-3 cells [2]; [6]): 86.6 ± 71.5 µM
O=C(O)C(F)(F)C(F)(F)C(F)(F)C(F)(F)C(F)(F)F [Perfluorohexanoic acid],100,–,reduced cellular proliferation,142 ± 12.6,100,reduced MMP,–,increased cell viability,–,300,–,–,–,"EC50 (JEG-3 cells [1]; Homo sapiens, JEG-3, read-out: Proliferation EC50 ± SD (raw values), JEG-3 cells, raw model output including fits that did not meet inclusion criteria): 10418 ± 10 µM; EC50 (JEG-3 cells [2]; [11]): 141 ± 11.1 µM"
O=C(O)C(F)(F)C(F)(F)C(F)(F)C(F)(F)C(F)(F)C(F)(F)C(F)(F)C(F)(F)C(F)(F)C(F)(F)F [Perfluoroundecanoic acid],–,–,reduced cellular proliferation,–,–,reduced MMP,300,reduced cell viability,–,–,230 ± 13.3,100,266 ± 12.4,"Prolif ↓, lowest concentration at which the mean response value exceeded the mean control value ± 2*SD (rough binning) (JEG-3 cells [1]; JEG-3 cells, 24 h): 100 µM; EC50 (JEG-3 cells [2]; JEG-3 cells, 24 h exposure, four-parameter fit, estimates meeting inclusion criteria, read-out: MMP EC50 ± SD): 200 ± 4 µM"

# Reference: PMC9081605, “A High-Throughput Toxicity Screen of 42 Per- and Polyfluoroalkyl Substances (PFAS) and Functional Assessment of Migration and Gene Expression in Human Placental Trophoblast Cells” (Frontiers in Toxicology, 2022)
